Test results taken from US5401743A, “Aminoalkyl-substituted 2-amino-5-mercaptothiadiazoles the preparation and use thereof” (BASF Aktiengesellschaft, priority 1991, dated 1995).
Structures can show the parent of a compound that is named as a salt.

target: T1, dopamine D2 receptor (Rattus norvegicus, UniProt P61169); assay: Receptor binding assay: affinity for the dopamine D2 receptor (3H-ADTN displacement, rat striatal membranes); parameters: species or system rat (Sprague Dawley); settings: not given
T1 construct: Striata from rats (Sprague Dawley, Charles River) were homogenized immediately after removal; from tissue; host or cells: rat striatum (Sprague Dawley, Charles River), membranes
T1 sequence (P61169 whole entry): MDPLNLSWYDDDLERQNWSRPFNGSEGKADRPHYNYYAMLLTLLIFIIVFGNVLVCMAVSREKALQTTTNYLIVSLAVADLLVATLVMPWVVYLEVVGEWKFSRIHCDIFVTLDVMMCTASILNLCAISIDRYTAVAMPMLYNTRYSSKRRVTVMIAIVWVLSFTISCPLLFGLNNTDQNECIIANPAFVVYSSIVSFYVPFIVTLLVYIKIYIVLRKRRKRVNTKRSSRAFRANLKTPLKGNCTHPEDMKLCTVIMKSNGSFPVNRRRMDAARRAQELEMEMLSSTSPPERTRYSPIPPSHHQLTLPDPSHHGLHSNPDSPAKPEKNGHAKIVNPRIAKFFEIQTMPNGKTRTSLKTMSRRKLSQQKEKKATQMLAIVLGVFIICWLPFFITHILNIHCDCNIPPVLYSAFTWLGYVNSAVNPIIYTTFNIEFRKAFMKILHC
Procedure: The effects of the novel compounds can be shown in the receptor binding assay as follows:
Striata from rats (Sprague Dawley, Charles River) were homogenized immediately after removal in 0.32M sucrose solution (0° C.). The homogenate was filtered through gauze, the filtrate was centrifuged at 1000 xg (5 min at 4° C.) and the resulting supernatant was centrifuged at 40000 xg (4° C., 10 min). The residue (membranes) was taken up in incubation buffer (50 mM tris-HCl, 1 mM MgCl2 and 0.1% ascorbic acid, pH 7.4) and incubated at 37° C. for 20 min. The residue was subsequently washed 2× with incubation buffer by resuspension and recentrifugation. The membranes were frozen in portions in liquid nitrogen.
The assay mixtures (1 ml) were composed of membranes (380 μg of protein), 1 nM ^3 H-ADTN (NEN, Dreieich Germany, specific radioactivity 1.4 TBq/mmol) and 0.1 μM SCH 23390 (total binding) or a) with the addition of 50 nM spiperone (non-specific binding) or b) with test substance. The mixtures were prepared in triplicate.
After the incubation (40 min at 25° C.) the mixtures were filtered through glass fiber filters (Whatman GF/B) and briefly washed with ice-cold washing buffer (Tris-HCl, pH 7.4). The radioactivity retained on the filters was determined by liquid scintillation counting. The non-specific binding comprised about 40-50% of the total binding.
The evaluation of the competition plots and the determination of the dissociation constant took place by iterative non-linear regression analysis based on the "ligand" program (Muson and Rodbard: Anal. Biochem. 107 (1980) 220).
Affinity of the test substances for the dopamine D2 receptor

Point of comparison: Nc1nnc(SCCN2CC=C(c3ccccc3)CC2)s1 [Example 3, 2-Amino-5-[2-(4-phenyl-1,2,3,6-tetrahydropyridyl)-ethylthio]-1,3,4-thiadiazole dihydrochloride], Ki 0.012 µM. Against it:
- Nc1nnc(SCCCN2CC=C(c3ccccc3)CC2)s1 [Example 4, 2-Amino-5-[3-(4-phenyl-1,2,3,6-tetrahydropyridyl)-propylthio]-1,3,4-thiadiazole hydrochloride] — 2-fold lower, 0.006 µM

same assay, conditions: rat striatal membranes, 1 nM 3H-ADTN, 0.1 μM SCH 23390, 40 min at 25° C., pH 7.4; non-specific binding with 50 nM spiperone; read-out: Ki (affinity of the test substances for the dopamine D2 receptor)

Point of comparison: Cc1cccc(N2CCN(CCCSc3nnc(N)s3)CC2)c1 [Example 14, 2-Amino-5-[3-(4-(3-methylphenyl)piperazinyl)propylthio]-1,3,4-thiadiazole hydrochloride], Ki 0.036 µM. Against it:
- Nc1nnc(SCCCN2CCN(c3ccc(F)cc3)CC2)s1 [Example 1, 2-Amino-5-[3-(4-fluorophenylpiperazinyl)propylthio]-1,3,4-thiadiazole dihydrochloride] — 3.5-fold higher, 0.125 µM
- CCOc1ccccc1N1CCN(CCSc2nnc(N)s2)CC1 [Example 11, 2-Amino-5-[2-(4-(2-ethoxyphenyl)piperazinyl)ethylthio]-1,3,4-thiadiazole hydrochloride] — 2.4-fold lower, 0.015 µM
- CCCN(CCCSc1nnc(N)s1)CCc1ccccc1 [Example 9, 2-Amino-5-[3-(2-phenylethyl-n-propylamino)propylthio]-1,3,4-thiadiazole tartrate] — within 1.5-fold, 0.045 µM
- Nc1nnc(SCCN2CCC(c3ccccc3)CC2)s1 [Example 8, 2-Amino-5-[2-(4-phenylpiperidinyl)ethylthio]-1,3,4-thiadiazole hydrochloride] — within 1.5-fold, 0.045 µM
